Test results taken from patent publication US10202331B2, “Antifibrinolytic compounds” (THROMBOLYTICS, LLC, priority 2014, dated 2019).

Key:
[1] = target: Human Plasminogen (Homo sapiens, UniProt P00747); test: Coupled in vitro fibrinolytic assay (fibrin clot lysis, absorbance at 405 nm); type: biochemical; details: for Potency TXA = 100: relative to TXA = 100
From the text: The principles and procedures for these assays are as follows. • a) The coupled enzyme reactions in these fibrinolytic assays The assays are constituted of four principal reactions. These are: • (a) The thrombin catalyzed conversion of fibrinogen to the insoluble fibrin clot. Soluble human fibrinogen is a constituent of these assays. The assays are initiated by the addition of human Thrombin, causing the known partial proteolysis of fibrinogen to generate fibrin, which polymerizes to yield an insoluble, opaque “clot”. This is not the same as a fibrin clot obtained physiologically, as it lacks numerous attributes of a physiological clot. […] It is known to bind with a very high affinity to insoluble polymerized fibrin, while it has a much weaker affinity for Fibrinogen. […] All constituents are prepared at appropriate higher stock concentrations from which aliquots are taken and mixed to a final volume of 400 μliters. Included ingredients and their final (assay) concentration are: […] The plates are placed in the plate reader sample compartment maintained at 37°. Assays are conducted with or without pre incubating the fibrinolytic inhibitors with the protein(s) of interest overnight. These two protocols are as follows: • (a) Experiments without pre-incubation: These assays are constituted as follows: […] The assay solutions are mixed & stirred, and the micro titer plate placed in the plate reader. Assays are initiated by delivering a solution (20 μliters) containing Thrombin and either Urokinase or TPA. […] Following pre incubation, the assay solutions are warmed to 37° in the plate reader, and the assays carried out as in (a), above, being initiated with the addition of Thrombin and TPA or Urokinase. The role of Antifibrinolytics in slowing clot dissolution is illustrated in the FIGURE, which illustrates the type of data obtained from the coupled Fribrinolysis Assays described above in Protocols 3(a) and 3(b). […] This represents the formation of fibrin in the assays. […] As a result, an exponential decay in the amount of fibrin present in the assays is observed. This process is illustrated above over a 10 to 30 minute period in control assays, in the absence of antifibrinolytic compounds. As a rough approximation, these can be considered as two sequential exponential processes—the first, formation of fibrin, or the clot, preceding the second—clot breakdown or the fibrinolytic process. A rough measure of the efficacy of fibrinolytic inhibitors, as determined in these coupled assays, is the half-life of the pseudo exponential decline in the optical density of the assay mixtures in the second portion of the reaction. A more rigorous measure of the effectiveness of the compounds to inhibit fibrinolysis, and, by inference, physiological thrombolytic processes, can be obtained by recording the observed fibrinolytic half-lives as a function of the fibrinolytic inhibitor concentration.

[2] = system: Kringles; test: Ability to substitute for EACA/TXA in binding to Kringles; details: as determined by the applicant
From the text: The D-configuration is preferred in the terminal amino acid in order to protect these dipeptides from peptidases.

[3] = Compounds Preincubated with Plasminogen and Fibrinogen
[4] = Compounds Preincubated with Plasminogen and Fibrinogen, relative to control without inhibitor
[5] = No Preincubation, fibrin half life relative to control without inhibitor

Sequence of Human Plasminogen (P00747 20-810 limits assumed): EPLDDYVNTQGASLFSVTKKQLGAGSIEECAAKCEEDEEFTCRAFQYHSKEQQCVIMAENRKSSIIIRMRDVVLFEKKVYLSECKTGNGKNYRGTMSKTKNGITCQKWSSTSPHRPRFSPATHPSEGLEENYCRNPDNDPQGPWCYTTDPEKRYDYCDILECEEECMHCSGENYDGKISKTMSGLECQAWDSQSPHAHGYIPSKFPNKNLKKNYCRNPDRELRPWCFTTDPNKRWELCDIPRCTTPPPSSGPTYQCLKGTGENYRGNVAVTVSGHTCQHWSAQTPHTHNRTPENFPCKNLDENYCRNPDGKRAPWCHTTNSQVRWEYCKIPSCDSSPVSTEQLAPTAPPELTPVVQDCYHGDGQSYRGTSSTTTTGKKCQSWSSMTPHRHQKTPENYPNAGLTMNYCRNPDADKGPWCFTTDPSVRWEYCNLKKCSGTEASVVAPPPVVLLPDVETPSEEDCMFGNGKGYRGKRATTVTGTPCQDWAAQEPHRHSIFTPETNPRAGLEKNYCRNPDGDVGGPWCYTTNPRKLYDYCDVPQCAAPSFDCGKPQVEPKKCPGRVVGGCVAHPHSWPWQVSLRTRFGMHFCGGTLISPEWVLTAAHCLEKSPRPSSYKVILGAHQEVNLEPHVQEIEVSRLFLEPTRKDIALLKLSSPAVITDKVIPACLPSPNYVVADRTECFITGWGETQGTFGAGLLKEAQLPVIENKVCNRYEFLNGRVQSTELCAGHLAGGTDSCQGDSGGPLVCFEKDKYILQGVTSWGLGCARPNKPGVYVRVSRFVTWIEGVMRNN

Row | Compound | Inhibition Percent [1, 3] | Potency TXA = 100 [1, 3] | Percent Of Control [1, 4] | Inhibition Percent ([1]; No Preincubation) | Percent Of Control [1, 5] | Potency TXA = 100 ([1]; No Preincubation) | ability to substitute for EACA/TXA [2] | anti-fibrinolytic effect compared with ACA or TXA (in words) [1]
1 | NCCCCCC(=O)O [ACA, 6-aminohexanoic acid] | 41.8% | 52 | 172% | 37.5% | 160% | 53 | – | –
2 | C[S+](C)C[C@H]1CC[C@H](C(=O)O)CC1.[Cl-] [TXA_S, trans-(4-dimethylthiomethyl) Cyclohexane-1-carboxylic acid sulfonium chloride] | 90.6% | 321 | – | 71.9% | 356% | 119 | – | functions as well as TXA in inhibiting fibrinolysis
3 | Cn1cncc1C[C@H](NC(=O)CCN)C(=O)O [Anserine] | – | – | – | – | – | – | substitute for EACA/TXA | –

The next lines start with results.

Row | Inhibition Percent [1, 3] | Potency TXA = 100 [1, 3] | Percent Of Control [1, 4] | Inhibition Percent ([1]; No Preincubation) | Percent Of Control [1, 5] | Potency TXA = 100 ([1]; No Preincubation) | ability to substitute for EACA/TXA [2] | Compound | anti-fibrinolytic effect compared with ACA or TXA (in words) [1]
4 | 69.7% | 100 | 329% | 66.6% | 300% | 100 | – | NC[C@H]1CC[C@H](C(=O)O)CC1 [TXA, trans-4-(aminomethyl)cyclohexanecarboxylic acid] | –
5 | 88.5% | 264 | 870% | 70.0% | 333% | 111 | – | C[S+](C)CCCCCC(=O)O [ACA_S, 6-(S,S dimethylthio) Hexanoic acid sultane] | –
6 | – | – | – | – | – | – | substitute for EACA/TXA | NCCC(=O)N[C@@H](Cc1c[nH]cn1)C(=O)O [Carnosine, β-Alanyl histidine] | –
